# Laboratory results taken from patent publication US20240226025A1, “POLYNUCLEOTIDES ENCODING METHYLMALONYL-COA MUTASE FOR THE TREATMENT OF METHYLMALONIC ACIDEMIA” (ModernaTX, Inc., priority 2021, published 2024).
# Test system: CD-1 mice
# Experiment: Expression of luciferase induced by lipid nanoparticles in mice (bioluminescence)
# Assay type: in vivo, mouse
# Settings: luciferase mRNA LNP
# Description: To further assess potency of expression and metabolic stability of lipids of the disclosure, expression of luciferase was measured following administration to rodents of a nanoparticle of the disclosure comprising an mRNA containing luciferase.
# Lipid nanoparticles including DSPC as a phospholipid, cholesterol as a structural lipid, Compound I as a PEG lipid, an ionizable amino lipid of Formula (II), and an mRNA encoding luciferase were intravenously administered to CD-1 mice and Sprague Dawley rats. […]
structure (smiles),measurement,value
CCCCCCCCC(CCCCCCCC)OC(=O)CCCCCCCN(CCCCCCCC(=O)OCC(CCCC)CCCCCCC)CCCNc1c(NC)c(=O)c1=O (stereo not shown) [Compound 10],Total Whole Body Flux @ 6 h (p/s),4.6E+09 p/s
